According to patent US6610698B2, “Substituted pyrimidine compounds and methods of use” (Amgen, Inc., priority 1996, dated 2003):
Where a name gives a salt, the structure may show the parent alone. Read-outs that look alike come from different tables or passages of the source.

Test system: TNF production by monocytes activated with bacterial lipopolysaccharide (LPS)
Assay: Lipopolysaccharide-activated monocyte TNF production assay
Type: cell-based, human
Conditions: TNF in supernatant by ELISA, read-out: IC50 values in the monocyte assay (LPS induced TNF release)
Experimental: Lipopolysaccharide-activated Monocyte TNF Production Assay
Test compounds were evaluated in vitro for the ability to inhibit the production of TNF by monocytes activated with bacterial lipopolysaccharide (LPS). Fresh residual source leukocytes (a byproduct of plateletpheresis) were obtained from a local blood bank, and peripheral blood mononuclear cells (PBMCS) were isolated by density gradient centrifugation on Ficol-Paque Plus (Pharmacia). PBMCs were suspended at 2×10^6/ml in DMEM supplemented to contain 2% FCS, 10 mM, 0.3 mg/ml […], 100 U/ml penicillin G and […] streptomycin sulfate (complete media). Cells were plated into Falcon flat bottom, 96 well culture plates (200 μl/well) and cultured overnight at 37° C. and 6% CO2. Non-adherent cells were removed by washing with 200 μl/well of fresh medium. Wells containing adherent cells (˜70% monocytes) were replenished with 100 μl of fresh medium.
Preparation of Test Compound Stock Solutions
Test compounds were dissolved in […]. Compound stock solutions were prepared to an initial concentration of […]. Stocks were diluted initially to 20-200 μM in complete media. Nine two-fold serial dilutions of each compound were then prepared in complete medium.
Treatment of Cells with Test Compounds and Activation of TNF Production with Lipopolysaccharide
One hundred microliters of each test compound dilution were added to microtiter wells containing adherent monocytes and 100 μl complete medium. Monocytes were cultured with test compounds for 60 min at which time 25 μl of complete medium containing 30 ng/ml lipopolysaccharide from E. coli K532 were added to each well. Cells were cultured an additional 4 hrs. Culture supernatants were then removed and TNF presence in the supernatants was quantified using an ELISA.
Flat bottom, 96 well Corning High Binding ELISA plates were coated overnight (4° C.) with 150 μL/well of 3 μg/ml murine anti-human TNF-α MAb (R&D Systems #MAB210). Wells were then blocked for 1 hr at room temperature with 200 μL/well of CaCl2-free ELISA buffer supplemented to contain 20 mg/ml BSA (standard ELISA buffer: […], 150 mM NaCl, 2 mM CaCl2, 0.15 mM thimerosal, pH 7.4). Plates were washed and replenished with 100 μl of test supernatants (diluted 1:3) or standards. Standards consisted of eleven 1.5-fold serial dilutions from a stock of 1 ng/ml recombinant human TNF (R&D Systems). Plates were incubated at room temperature for 1 hr on orbital shaker (300 rpm), washed and replenished with 100 μl/well of 0.5 μg/ml goat anti-human TNF-α (R&D systems #AB-210-NA) biotinylated at a 4:1 ratio. Plates were incubated for 40 min, washed and replenished with 100 μl/well of alkaline phosphatase-conjugated streptavidin (Jackson ImmunoResearch #016-050-084) at 0.02 μg/ml. Plates were incubated 30 min, washed and replenished with 200 μl/well of 1 mg/ml of p-nitrophenyl phosphate. After 30 min, plates were read at 405 nm on a Vmax plate reader.
Standard curve data were fit to a second order polynomial and unknown TNF-α concentrations determined from their OD by solving this equation for concentration. TNF concentrations were then plotted vs. test compound concentration using a second order polynomial. This equation was then used to calculate the concentration of test compounds causing a 50% reduction in TNF production.

CC(CCc1ccccc1)Nc1ncc(-c2ccc(F)cc2)c(-c2ccncc2)n1 (centres unmarked) [Example 2-23, 5-(4-Fluorophenyl)-2-((1-methyl-3-phenylpropyl)-amino)-4-(4-pyridyl)-pyrimidine] was tested, and the IC50 (Homo sapiens, Monocyte) was no more than 20 µM.

Fc1ccc(-c2cnc(NCCc3ccc(Br)cc3)nc2-c2ccncc2)cc1 [Example 2-10, 2-(2-(4-Bromophenyl)-ethylamino)-5-(4-fluorophenyl)-4-(4-pyridyl)-pyrimidine] showed an IC50 (Homo sapiens, Monocyte) of no more than 20 µM.

Fc1ccc(-c2cnc(NCCN3CCCC3)nc2-c2ccncc2)cc1 [Example 2-32, 5-(4-Fluorophenyl)-4-(4-pyridyl)-2-(2-pyrrolidinoethylamino)-pyrimidine] showed an IC50 (Homo sapiens, Monocyte) of no more than 20 µM.

For Fc1ccc(-c2cnc(NCCN3CCOCC3)nc2-c2ccncc2)cc1 [Example 2-30, 5-(4-Fluorophenyl)-2-(2-morpholinoethylamino)-4-(4-pyridyl)-pyrimidine], the IC50 (Homo sapiens, Monocyte) was no more than 20 µM.

Work on Nc1ccc(CCNc2ncc(-c3ccc(F)cc3)c(-c3ccncc3)n2)cc1 [Example 2-12, 2-(2-(4-Aminophenyl)-ethylamino)-5-(4-fluorophenyl)-4-(4-pyridyl)-pyrimidine] yielded an IC50 (Homo sapiens, Monocyte) of no more than 20 µM.

In the case of NCCCCNc1ncc(-c2ccc(F)cc2)c(-c2ccncc2)n1 [Example 2-3, 2-(4-Aminobutylamino)-5-(4-fluorophenyl)-4-(4-pyridyl)-pyrimidine hydrochloride], the IC50 (Homo sapiens, Monocyte) is reported as no more than 20 µM.

Work on Fc1ccc(-c2cnc(CSc3ccccc3)nc2-c2ccncc2)cc1 [Example 1-10, 5-(4-Fluorophenyl)-2-phenylthiomethyl-4-(4-pyridinyl)-pyrimidine] yielded an IC50 (Homo sapiens, Monocyte) of no more than 20 µM.

Compound CCN(CC)CCNc1ncc(-c2ccc(F)cc2)c(-c2ccncc2)n1 [Example 1-22, 2-(2-Diethylaminoethylamino)-5-(4-fluorophenyl)-4-(4-pyridyl)-pyrimidine] has an IC50 (Homo sapiens, Monocyte) of no more than 20 µM.

COc1ccccc1CCNc1ncc(-c2ccc(F)cc2)c(-c2ccncc2)n1 [Example 2-15, 5-(4-Fluorophenyl)-2-(2-(2-methoxyphenyl)-ethylamino)-4-(4-pyridyl)-pyrimidine] was tested, and the IC50 (Homo sapiens, Monocyte) was no more than 20 µM.

Work on “5-(4-Fluorophenyl)-2-((3-imidazolylpropyl)-amino)-4-(4-pyridyl)-pyrimidine [Example 2-24]” yielded an IC50 of no more than 5 µM.

Fc1ccc(-c2cnc(NCCN3CCCCC3)nc2-c2ccncc2)cc1 [Example 2-31, 5-(4-Fluorophenyl)-2-(2-piperidinoethylamino)-4-(4-pyridyl)-pyrimidine] was tested, and the IC50 (Homo sapiens, Monocyte) was no more than 20 µM.

With CN(CCc1ccccc1)c1ncc(-c2ccc(F)cc2)c(-c2ccncc2)n1 [Example 2-21, 5-(4-Fluorophenyl)-2-(methyl-(2-phenylethyl)-amino)-4-(4-pyridyl)-pyrimidine] the IC50 (listed as 5-(4-Fluorophenyl)-2-(N-methyl-N-(2-phenylethyl)amino)-4-(4-pyridyl)-pyrimidine) was no more than 5 µM.

With O=C1CCCN1CCCNc1ncc(-c2ccc(F)cc2)c(-c2ccncc2)n1 [Example 2-34, 5-(4-Fluorophenyl)-2-(3-(2-pyrrolidinon-1-yl)-propylamino)-4-(4-pyridyl)-pyrimidine] the IC50 (Homo sapiens, Monocyte) was no more than 20 µM.

In the case of OC(CNc1ncc(-c2ccc(F)cc2)c(-c2ccncc2)n1)c1ccccc1 (centres unmarked) [Example 2-20, 5-(4-Fluorophenyl)-2-((2-hydroxy-2-phenyl)-ethylamino)-4-(4-pyridyl)-pyrimidine], the IC50 is reported as no more than 5 µM.

Work on Fc1ccc(-c2cnc(-c3ccncc3)nc2-c2ccncc2)cc1 [Example 11, 5-(4-Fluorophenyl)-2,4-bis-(4-pyridyl)-pyrimidine] yielded an IC50 (Homo sapiens, Monocyte) of no more than 20 µM.

Fc1ccc(-c2cnc(NCCCc3ccccc3)nc2-c2ccncc2)cc1 [Example 2-22, 5-(4-Fluorophenyl)-2-((3-phenylpropyl)-amino)-4-(4-pyridyl)-pyrimidine] showed an IC50 of no more than 5 µM.

Fc1ccc(-c2cnc(NCCc3ccccc3F)nc2-c2ccncc2)cc1 [Example 2-13, 5-(4-Fluorophenyl)-2-(2-(2-fluorophenyl)-ethylamino)-4-(4-pyridyl)-pyrimidine] gave an IC50 of no more than 5 µM.

Work on CC(CCc1ccccc1)Nc1nc(-c2ccncc2)c(-c2ccc(F)cc2)c(=O)[nH]1 (centres unmarked) [Example 6-3, 5-(4-Fluorophenyl)-2-((1-methyl-3-phenylpropyl)-amino)-6-(4-pyridyl)-4(3H)-pyrimidinone] yielded an IC50 of no more than 5 µM.

Work on Fc1ccc(-c2cnc(Cc3c(Cl)cccc3Cl)nc2-c2ccncc2)cc1 [Example 1-8, 2-(2,6-Dichlorobenzyl)-5-(4-fluorophenyl)-4-(4-pyridyl)-pyrimidine] yielded an IC50 (Homo sapiens, Monocyte) of no more than 20 µM.

With Fc1ccc(-c2cnc(N3CCOCC3)nc2-c2ccncc2)cc1 [Example 1-33, 5-(4-Fluorophenyl)-2-morpholino-4-(4-pyridyl)-pyrimidine] the IC50 (Homo sapiens, Monocyte) was no more than 20 µM.

With O=c1[nH]c(SCCNc2ccccc2)nc(-c2ccncc2)c1-c1ccc(F)cc1 [Example 5-4, 5-(4-Fluorophenyl)-2-(2-phenylaminoethyl)thio-6-(4-pyridyl)-4(3H)-pyrimidinone] the IC50 (Homo sapiens, Monocyte) was no more than 20 µM.

With Cc1cccc(C)c1Nc1ncc(-c2ccc(F)cc2)c(-c2ccncc2)n1 [Example 1-25, 2-(2,6-Dimethylphenylamino)-5-(4-fluorophenyl)-4-(4-pyridyl)-pyrimidine] the IC50 (Homo sapiens, Monocyte) was no more than 20 µM.

O=c1[nH]c(Cc2c(Cl)cccc2Cl)nc(-c2ccncc2)c1-c1ccc(F)cc1 [Example 4-3, 2-(2,6-Dichlorobenzyl)-5-(4-fluorophenyl)-6-(4-pyridyl)-4(3H)-pyrimidinone] showed an IC50 (Homo sapiens, Monocyte) of no more than 20 µM.

COc1cccc(CCNc2ncc(-c3ccc(F)cc3)c(-c3ccncc3)n2)c1 [Example 2-18, 5-(4-Fluorophenyl)-2-(2-(3-methoxyphenyl)-ethylamino)-4-(4-pyridyl)-pyrimidine] showed an IC50 (Homo sapiens, Monocyte) of no more than 20 µM.

Compound O=c1[nH]c(SCCOc2ccccc2)nc(-c2ccncc2)c1-c1ccc(F)cc1 [Example 5-3, 5-(4-Fluorophenyl)-2-(2-phenoxyethyl)thio-6-(4-pyridyl)-4(3H)-pyrimidinone] has an IC50 (Homo sapiens, Monocyte) of no more than 20 µM.

For Fc1ccc(CCNc2ncc(-c3ccc(F)cc3)c(-c3ccncc3)n2)cc1 [Example 2-8, 5-(4-Fluorophenyl)-2-(2-(4-fluorophenyl)-ethylamino)-4-(4-pyridyl)-pyrimidine], the IC50 was no more than 5 µM.

Fc1ccc(Nc2ncc(-c3ccc(F)cc3)c(-c3ccncc3)n2)cc1 [Example 1-27, 5-(4-Fluorophenyl)-2-(4-fluorophenylamino)-4-(4-pyridyl)-pyrimidine] was tested, and the IC50 (Homo sapiens, Monocyte) was no more than 20 µM.

Fc1ccc(-c2cnc(NCCCCc3ccccc3)nc2-c2ccncc2)cc1 [Example 2-25, 5-(4-Fluorophenyl)-2-((4-phenyl-n-butyl)-amino)-4-(4-pyridyl)-pyrimidine] showed an IC50 (Homo sapiens, Monocyte) of no more than 20 µM.

Compound O=c1[nH]c(NCCCc2ccccc2)nc(-c2ccncc2)c1-c1ccc(F)cc1 [Example 6-2, 5-(4-Fluorophenyl)-2-((3-phenylpropyl)-amino)-6-(4-pyridyl)-4(3H)-pyrimidinone] has an IC50 of no more than 5 µM.

Oc1ccc(CCNc2ncc(-c3ccc(F)cc3)c(-c3ccncc3)n2)cc1 [Example 2-11, 5-(4-Fluorophenyl)-2-(2-(4-hydroxyphenyl)-ethylamino)-4-(4-pyridyl)-pyrimidine] was tested, and the IC50 was no more than 5 µM.

In the case of Fc1ccc(-c2cnc(Nc3c(Cl)cccc3Cl)nc2-c2ccncc2)cc1 [Example 1-24, 2-(2,6-Dichlorophenylamino)-5-(4-fluorophenyl)-4-(4-pyridyl)-pyrimidine], the IC50 (Homo sapiens, Monocyte) is reported as no more than 20 µM.

Fc1ccc(-c2cnc(-c3cccs3)nc2-c2ccncc2)cc1 [Example 1-18, 5-(4-Fluorophenyl)-4-(4-pyridyl)-2-(2-thienyl)-pyrimidine] gave an IC50 (Homo sapiens, Monocyte) of no more than 20 µM.
